In US20200172529A1, “Chemical Compound, Pharmaceutical Composition Thereof, and Use and Application Thereof” (Beijing Hanmi Pharm. Co., Ltd., priority 2017, published 2020):

Assays:
Assay type in all cases: biochemical
[1] = biological target: T1, TYK2 kinase (Homo sapiens, UniProt P29597); assay: Inhibition assay of TYK2 kinase activity (ADP-Glo Kinase Assay)
T1 construct: purchased Life Technologies PR8440C
How it was run: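 Enzyme at 0.8 ng/mL (2-fold final) in 40 mM Tris-HCl pH 7.5, 20 mM MgCl2, 0.1 mg/mL BSA, 1 mM DTT, preincubated 10 min with compound (6 points, 10-fold dilutions from 10 μM). ATP plus polyE4Y1 then added for 60 min at room temperature. ADP-Glo luminescence read and IC50 derived.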

[2] = biological target: JAK2 kinase (Homo sapiens, UniProt O60674); assay: Inhibition assay of JAK2 kinase activity (ADP-Glo Kinase Assay)
Excerpt: Inhibition assay of JAK2 kinase activity: the method in ADP-Glo™ Kinase Assay (Promega, V9102) was used to determine the inhibitory activity of the test compounds against JAK2 kinase.

[3] = biological target: T2, JAK3 kinase (Homo sapiens, UniProt P52333); assay: Inhibition assay of JAK3 kinase activity (ADP-Glo Kinase Assay)
T2 sequence (P52333 1-1124): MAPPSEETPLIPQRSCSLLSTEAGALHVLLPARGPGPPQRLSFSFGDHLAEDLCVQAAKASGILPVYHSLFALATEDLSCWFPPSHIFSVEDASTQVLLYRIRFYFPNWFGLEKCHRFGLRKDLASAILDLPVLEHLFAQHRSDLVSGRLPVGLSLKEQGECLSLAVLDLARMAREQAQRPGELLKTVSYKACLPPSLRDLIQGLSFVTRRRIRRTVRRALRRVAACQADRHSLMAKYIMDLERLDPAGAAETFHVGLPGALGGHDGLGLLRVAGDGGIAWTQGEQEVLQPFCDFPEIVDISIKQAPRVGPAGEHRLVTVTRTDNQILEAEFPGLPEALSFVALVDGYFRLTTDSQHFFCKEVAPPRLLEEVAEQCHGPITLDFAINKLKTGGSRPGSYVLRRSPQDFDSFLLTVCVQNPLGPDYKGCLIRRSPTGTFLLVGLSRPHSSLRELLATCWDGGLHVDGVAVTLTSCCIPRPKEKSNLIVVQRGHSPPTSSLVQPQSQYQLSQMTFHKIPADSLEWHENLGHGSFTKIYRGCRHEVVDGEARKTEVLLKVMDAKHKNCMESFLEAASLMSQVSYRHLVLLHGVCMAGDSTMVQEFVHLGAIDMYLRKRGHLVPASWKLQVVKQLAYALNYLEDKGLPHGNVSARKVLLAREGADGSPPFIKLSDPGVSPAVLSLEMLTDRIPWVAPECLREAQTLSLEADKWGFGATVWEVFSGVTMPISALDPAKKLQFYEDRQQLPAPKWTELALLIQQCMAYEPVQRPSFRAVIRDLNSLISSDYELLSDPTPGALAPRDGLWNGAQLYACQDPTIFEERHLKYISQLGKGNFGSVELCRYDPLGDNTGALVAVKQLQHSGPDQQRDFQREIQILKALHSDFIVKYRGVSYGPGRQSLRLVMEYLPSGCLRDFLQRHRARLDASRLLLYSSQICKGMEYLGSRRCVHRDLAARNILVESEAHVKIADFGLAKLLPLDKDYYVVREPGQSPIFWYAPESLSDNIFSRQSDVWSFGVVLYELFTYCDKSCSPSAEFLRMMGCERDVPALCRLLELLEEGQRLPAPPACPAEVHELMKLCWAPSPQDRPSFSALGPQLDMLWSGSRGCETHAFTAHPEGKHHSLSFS
Excerpt: Inhibition assay of JAK3 kinase activity: the method in ADP-Glo™ Kinase Assay (Promega, V9102) was used to determine the inhibitory activity of the test compounds against JAK3 kinase.

[4] = biological target: JAK1 kinase (Homo sapiens, UniProt P23458); assay: Inhibition assay of JAK1 kinase activity (ADP-Glo Kinase Assay)
Excerpt: Inhibition assay of JAK1 kinase activity: the method in ADP-Glo™ Kinase Assay (Promega, V9102) was used to determine the inhibitory activity of the test compounds against JAK1 kinase.

[5] = biological target: SYK kinase (Homo sapiens, UniProt P43405); assay: Inhibition assay of SYK kinase activity (ADP-Glo Kinase Assay)
Excerpt: Inhibition assay of SYK kinase activity: the method in ADP-Glo™ Kinase Assay (Promega, V9102) was used to determine the inhibitory activity of the test compounds against SYK kinase.

Chain of JAK1 kinase (P23458 whole entry): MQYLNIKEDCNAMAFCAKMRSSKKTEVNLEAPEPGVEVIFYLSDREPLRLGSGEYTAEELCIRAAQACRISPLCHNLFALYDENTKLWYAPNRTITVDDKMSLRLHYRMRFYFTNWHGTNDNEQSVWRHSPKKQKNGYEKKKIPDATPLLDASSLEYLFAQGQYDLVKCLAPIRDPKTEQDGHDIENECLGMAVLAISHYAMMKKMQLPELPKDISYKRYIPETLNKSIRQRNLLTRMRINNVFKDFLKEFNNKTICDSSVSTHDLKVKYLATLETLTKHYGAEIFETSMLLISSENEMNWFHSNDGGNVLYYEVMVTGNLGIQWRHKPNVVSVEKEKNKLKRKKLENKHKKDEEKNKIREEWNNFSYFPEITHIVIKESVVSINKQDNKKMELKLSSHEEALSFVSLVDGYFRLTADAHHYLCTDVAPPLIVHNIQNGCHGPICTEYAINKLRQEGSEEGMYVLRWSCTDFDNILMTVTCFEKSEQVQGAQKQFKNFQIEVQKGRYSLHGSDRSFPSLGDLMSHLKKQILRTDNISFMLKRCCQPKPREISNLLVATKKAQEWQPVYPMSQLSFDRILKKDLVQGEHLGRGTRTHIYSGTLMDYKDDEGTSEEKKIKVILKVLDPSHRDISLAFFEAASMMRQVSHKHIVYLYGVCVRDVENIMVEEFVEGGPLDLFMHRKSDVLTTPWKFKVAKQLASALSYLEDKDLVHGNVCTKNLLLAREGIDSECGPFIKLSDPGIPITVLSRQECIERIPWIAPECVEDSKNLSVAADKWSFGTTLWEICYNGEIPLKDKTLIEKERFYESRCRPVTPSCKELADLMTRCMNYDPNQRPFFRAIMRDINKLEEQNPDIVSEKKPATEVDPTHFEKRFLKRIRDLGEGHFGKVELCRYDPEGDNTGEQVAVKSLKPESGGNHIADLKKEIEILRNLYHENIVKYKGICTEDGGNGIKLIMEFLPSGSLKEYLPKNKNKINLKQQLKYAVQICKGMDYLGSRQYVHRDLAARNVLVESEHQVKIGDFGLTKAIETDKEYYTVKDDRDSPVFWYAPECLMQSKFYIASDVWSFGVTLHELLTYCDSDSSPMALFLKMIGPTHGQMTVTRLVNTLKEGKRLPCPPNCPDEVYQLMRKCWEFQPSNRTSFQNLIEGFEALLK
Chain of JAK2 kinase (O60674 whole entry): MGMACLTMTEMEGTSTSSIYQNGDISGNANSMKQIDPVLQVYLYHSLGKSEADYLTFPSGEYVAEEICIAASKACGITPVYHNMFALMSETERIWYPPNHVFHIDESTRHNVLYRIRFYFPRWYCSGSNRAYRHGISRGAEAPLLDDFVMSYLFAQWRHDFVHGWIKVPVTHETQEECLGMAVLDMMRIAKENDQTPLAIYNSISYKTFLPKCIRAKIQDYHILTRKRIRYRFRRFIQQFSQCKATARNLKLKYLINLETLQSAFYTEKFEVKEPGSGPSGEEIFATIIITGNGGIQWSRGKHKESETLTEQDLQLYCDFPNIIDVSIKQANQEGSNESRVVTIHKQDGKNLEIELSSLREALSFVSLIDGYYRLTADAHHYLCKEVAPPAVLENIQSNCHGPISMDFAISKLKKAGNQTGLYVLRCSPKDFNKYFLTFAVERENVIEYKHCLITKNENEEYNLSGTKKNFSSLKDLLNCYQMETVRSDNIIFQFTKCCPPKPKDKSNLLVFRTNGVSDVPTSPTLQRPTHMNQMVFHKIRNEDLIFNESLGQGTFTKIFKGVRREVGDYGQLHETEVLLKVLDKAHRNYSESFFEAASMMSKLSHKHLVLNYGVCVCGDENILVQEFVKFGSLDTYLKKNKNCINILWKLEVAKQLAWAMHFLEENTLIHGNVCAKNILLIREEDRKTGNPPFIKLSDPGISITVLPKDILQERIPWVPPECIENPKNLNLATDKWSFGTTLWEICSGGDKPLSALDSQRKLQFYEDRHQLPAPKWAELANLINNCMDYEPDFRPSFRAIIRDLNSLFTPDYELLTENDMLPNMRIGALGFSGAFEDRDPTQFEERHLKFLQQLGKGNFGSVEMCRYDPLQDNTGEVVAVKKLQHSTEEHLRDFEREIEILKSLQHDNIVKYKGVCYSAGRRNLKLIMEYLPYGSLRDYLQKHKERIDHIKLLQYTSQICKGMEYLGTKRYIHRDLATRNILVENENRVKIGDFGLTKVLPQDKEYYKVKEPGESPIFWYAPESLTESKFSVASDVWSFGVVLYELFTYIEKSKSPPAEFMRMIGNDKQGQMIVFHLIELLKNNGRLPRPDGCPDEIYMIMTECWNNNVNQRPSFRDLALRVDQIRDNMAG
T1 sequence (P29597 whole entry): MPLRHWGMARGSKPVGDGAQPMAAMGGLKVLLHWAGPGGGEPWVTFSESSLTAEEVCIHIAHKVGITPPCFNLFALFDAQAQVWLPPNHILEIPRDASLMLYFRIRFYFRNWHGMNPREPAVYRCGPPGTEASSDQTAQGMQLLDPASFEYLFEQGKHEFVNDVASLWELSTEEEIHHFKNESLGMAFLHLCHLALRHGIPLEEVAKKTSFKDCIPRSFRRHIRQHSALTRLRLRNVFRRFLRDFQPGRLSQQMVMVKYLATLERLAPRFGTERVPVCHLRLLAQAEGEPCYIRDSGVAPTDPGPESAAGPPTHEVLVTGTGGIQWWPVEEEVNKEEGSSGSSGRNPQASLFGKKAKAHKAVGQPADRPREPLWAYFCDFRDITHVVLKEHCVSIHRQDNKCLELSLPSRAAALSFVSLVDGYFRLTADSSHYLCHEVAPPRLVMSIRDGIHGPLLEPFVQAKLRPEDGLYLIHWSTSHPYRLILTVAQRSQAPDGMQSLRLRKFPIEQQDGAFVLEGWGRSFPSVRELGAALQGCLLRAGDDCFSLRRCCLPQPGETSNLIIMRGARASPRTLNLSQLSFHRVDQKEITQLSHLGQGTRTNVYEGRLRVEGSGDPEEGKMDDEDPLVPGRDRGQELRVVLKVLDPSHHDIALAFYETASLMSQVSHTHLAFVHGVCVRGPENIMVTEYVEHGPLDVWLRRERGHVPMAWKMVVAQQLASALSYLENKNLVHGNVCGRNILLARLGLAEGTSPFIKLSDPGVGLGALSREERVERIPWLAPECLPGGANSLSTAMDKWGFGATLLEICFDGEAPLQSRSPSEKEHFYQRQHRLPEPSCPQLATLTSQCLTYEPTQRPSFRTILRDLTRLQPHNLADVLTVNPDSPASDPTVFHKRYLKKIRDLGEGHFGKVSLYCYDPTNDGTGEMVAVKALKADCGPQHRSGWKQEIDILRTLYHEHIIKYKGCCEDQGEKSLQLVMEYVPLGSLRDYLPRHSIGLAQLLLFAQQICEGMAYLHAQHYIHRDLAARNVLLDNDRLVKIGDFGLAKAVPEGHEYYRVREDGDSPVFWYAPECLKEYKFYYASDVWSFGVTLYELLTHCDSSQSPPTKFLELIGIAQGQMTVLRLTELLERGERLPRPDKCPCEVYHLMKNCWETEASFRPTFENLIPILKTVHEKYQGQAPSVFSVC

Row | Compound | IC50 [1] [nM] | IC50 [2] [nM] | IC50 [3] [nM] | IC50 [4] [nM] | IC50 [5] [nM]
1 | C=CCCNc1nc(Nc2ccc3c(c2)NC[C@H](O)CO3)ncc1C(N)=O [Example 76, 4-(but-3-enylamino)-2-(((S)-2,3,4,5-tetrahydro-3-hydroxybenzo[b][1,4]oxazepin-7-yl)amino)pyrimidin-5-carboxamide] | 10 to 100 | < 10 | < 10 | < 10 | 10 to 100
2 | CC1(CO[C@H]2CNc3cc(Nc4ncc(C(N)=O)c(NC5CC5)n4)ccc3OC2)COC1 [Example 101, 4-(cyclopropylamino)-2-(((S)-2,3,4,5-tetrahydro-3-((3-methyloxetan-3-yl)methoxy)benzo[b][1,4]oxazepin-7-yl)amino)pyrimidin-5-carboxamide] | < 10 | 10 to 100 | 10 to 100 | < 10 | 10 to 100
3 | CCOCCO[C@H]1CNc2cc(Nc3ncc(C(N)=O)c(NC4CC4)n3)ccc2OC1 [Example 95, 4-(cyclopropylamino)-2-(((S)-2,3,4,5-tetrahydro-3-(2-ethoxyethoxy)benzo[b][1,4]oxazepin-7-yl)amino)pyrimidin-5-carboxamide] | < 10 | 10 to 100 | < 10 | < 10 | 10 to 100
4 | CCOC(=O)CO[C@H]1CNc2cc(Nc3ncc(C(N)=O)c(NC4CC4)n3)ccc2OC1 [Example 91, 4-(cyclopropylamino)-2-(((S)-2,3,4,5-tetrahydro-3-ethoxycarbonylmethoxybenzo[b][1,4]oxazepin-7-yl)amino)pyrimidin-5-carboxamide] | < 10 | 10 to 100 | 10 to 100 | < 10 | 10 to 100
5 | C#CCCCNc1nc(Nc2ccc3c(c2)NC[C@H](O)CO3)ncc1C(N)=O [Example 72, 4-(pent-4-yn-1-ylamino)-2-(((S)-2,3,4,5-tetrahydro-3-hydroxybenzo[b][1,4]oxazepin-7-yl)amino)pyrimidin-5-carboxamide] | < 10 | < 10 | < 10 | < 10 | 10 to 100
6 | CC(C)OCCO[C@H]1CNc2cc(Nc3ncc(C(N)=O)c(NC4CC4)n3)ccc2OC1 [Example 96, 4-(cyclopropylamino)-2-(((S)-2,3,4,5-tetrahydro-3-(2-isopropoxyethoxy)benzo[b][1,4]oxazepin-7-yl)amino)pyrimidin-5-carboxamide] | < 10 | 10 to 100 | 10 to 100 | < 10 | 10 to 100
7 | C#CCCNc1nc(Nc2ccc3c(c2)NC[C@H](O)CO3)ncc1C(N)=O [Example 66, 4-(but-3-yn-1-ylamino)-2-(((S)-2,3,4,5-tetrahydro-3-hydroxybenzo[b][1,4]oxazepin-7-yl)amino)pyrimidin-5-carboxamide] | < 10 | 10 to 100 | 10 to 100 | < 10 | 10 to 100
8 | CC1(Nc2nc(Nc3ccc4c(c3)NC[C@H](O)CO4)ncc2C(N)=O)CC1 [Example 68, 4-((1-methylcyclopropyl)amino)-2-(((S)-2,3,4,5-tetrahydro-3-hydroxybenzo[b][1,4]oxazepin-7-yl)amino)pyrimidin-5-carboxamide] | < 10 | < 10 | 10 to 100 | < 10 | 10 to 100
9 | NC(=O)c1cnc(Nc2ccc3c(c2)NC[C@H](O)CO3)nc1NCC1CC1 [Example 44, 4-((cyclopropylmethyl)amino)-2-(((S)-2,3,4,5-tetrahydro-3-hydroxybenzo[b][1,4]oxazepin-7-yl)amino)pyrimidin-5-carboxamide] | < 10 | < 10 | < 10 | < 10 | 10 to 100
10 | NC(=O)c1cnc(Nc2ccc3c(c2)NC[C@H](OCC2CCCO2)CO3)nc1NC1CC1 (stereo partly drawn) [Example 97, 4-(cyclopropylamino)-2-(((S)-2,3,4,5-tetrahydro-3-((tetrahydrofuran-2-yl)methoxy)benzo[b][1,4]oxazepin-7-yl)amino)pyrimidin-5-carboxamide] | < 10 | 10 to 100 | 10 to 100 | < 10 | 10 to 100

Continued, values first:

Row | IC50 [1] [nM] | IC50 [2] [nM] | IC50 [3] [nM] | IC50 [4] [nM] | IC50 [5] [nM] | Compound
11 | < 10 | 10 to 100 | 10 to 100 | < 10 | 10 to 100 | COCCO[C@H]1CNc2cc(Nc3ncc(C(N)=O)c(NC4CC4)n3)ccc2OC1 [Example 78, 4-(cyclopropylamino)-2-(((S)-2,3,4,5-tetrahydro-3-methoxyethoxybenzo[b][1,4]oxazepin-7-yl)amino)pyrimidin-5-carboxamide]
12 | < 10 | 10 to 100 | 10 to 100 | 10 to 100 | 10 to 100 | COC1CNc2cc(Nc3ncc(C(N)=O)c(NC4CC4)n3)ccc2OC1 (stereo not drawn) [Example 24, 4-(cyclopropylamino)-2-((3-methoxy-2,3,4,5-tetrahydro-benzo[b][1,4]oxazepin-7-yl)amino)pyrimidin-5-carboxamide]
13 | < 10 | < 10 | < 10 | 10 to 100 | 10 to 100 | CO[C@@H]1CNc2cc(Nc3ncc(C(N)=O)c(NC4CC4)n3)ccc2OC1 [Example 80, 4-(cyclopropylamino)-2-(((R)-2,3,4,5-tetrahydro-3-methoxybenzo[b][1,4]oxazepin-7-yl)amino)pyrimidin-5-carboxamide]
14 | < 10 | < 10 | < 10 | < 10 | 10 to 100 | NC(=O)c1cnc(Nc2ccc3c(c2)NC[C@H](OCCO)CO3)nc1NC1CC1 [Example 92, 4-(cyclopropylamino)-2-(((S)-2,3,4,5-tetrahydro-3-(2-hydroxyethoxy)benzo[b][1,4]oxazepin-7-yl)amino)pyrimidin-5-carboxamide]
15 | < 10 | 10 to 100 | 10 to 100 | < 10 | 10 to 100 | CCO[C@H]1CNc2cc(Nc3ncc(C(N)=O)c(NC4CC4)n3)ccc2OC1 [Example 79, 4-(cyclopropylamino)-2-(((S)-2,3,4,5-tetrahydro-3-ethoxybenzo[b][1,4]oxazepin-7-yl)amino)pyrimidin-5-carboxamide]
16 | < 10 | 10 to 100 | 10 to 100 | < 10 | 10 to 100 | COCCCO[C@H]1CNc2cc(Nc3ncc(C(N)=O)c(NC4CC4)n3)ccc2OC1 [Example 98, 4-(cyclopropylamino)-2-(((S)-2,3,4,5-tetrahydro-3-(3-methoxypropoxy)benzo[b][1,4]oxazepin-7-yl)amino)pyrimidin-5-carboxamide]
17 | < 10 | < 10 | 10 to 100 | < 10 | 10 to 100 | [2H]C([2H])([2H])O[C@H]1CNc2cc(Nc3ncc(C(N)=O)c(NC4CC4)n3)ccc2OC1 [Example 87, 4-(cyclopropylamino)-2-(((S)-2,3,4,5-tetrahydro-3-(trideuteromethoxy)benzo[b][1,4]oxazepin-7-yl)amino)pyrimidin-5-carboxamide]
18 | < 10 | < 10 | 10 to 100 | 10 to 100 | 10 to 100 | COCCO[C@@H]1CNc2cc(Nc3ncc(C(N)=O)c(NC4CC4)n3)ccc2OC1 [Example 86, 4-(cyclopropylamino)-2-(((R)-2,3,4,5-tetrahydro-3-methoxyethoxybenzo[b][1,4]oxazepin-7-yl)amino)pyrimidin-5-carboxamide]
